# Source: patent US20260000655A1, “PHARMACEUTICAL COMPOSITION FOR USE IN PREVENTION OR TREATMENT OF LIFESTYLE-RELATED DISEASE” (priority 2022, published 2026)
# How the values were obtained:
# [1] = tested on: myotube cell model L6-GLUT4myc; experiment: Cytotoxicity (MTT reagent); format: cell-based, rat; conditions: HPH-15 1 μM, 10 μM or 50 μM, 24 hours
# Description: (§1) It was examined whether using HPH-15 as a drug caused any cytotoxicity.
# (§2) The myotube cell model L6-GLUT4myc, the liver cell model HepG2 cells, and the adipocyte model 3T3-L1 used in Example 1 were each seeded onto a 24-well plate (1×10^5 cells/well, […] of culture liquid) and cultured overnight. Then, a DMSO solution (1%) containing HPH-15 (final concentration: 1 μM, 10 μM or 50 μM) was added to the medium, and the cells were further cultured for 24 hours. As a control, only DMSO solution (1%) was added, and the cells were cultured for 24 hours in the same manner. Next, […] of MTT reagent (3-(4,5-dimethyl-2-thiazolyl)-2,5-diphenyl-2H-tetrazolium bromide: 1.1 mg/mL: Dojindo Laboratories) was added to each well, and the cells were further cultured for 4 hours. After collecting the precipitated crystals, the supernatant was removed and DMSO ([…]) was added to completely dissolve the crystals. Cytotoxicity was evaluated by measuring the absorbance (550 nm) of the solution and determining the number of viable cells.
# [2] = tested on: high-fat diet-induced obesity model mice; experiment: Blood glucose lowering effect in mouse; format: in vivo; conditions: HPH-15 10 mg/kg or 100 mg/kg orally once a day for 28 days, compared with metformin 300 mg/kg
# Description: In Example 7, mice were used instead of the cells, which were used up to Example 6, to examine the blood glucose lowering effect of HPH-15.
# Four-week-old […] mice (CLEA Japan, Inc.) were fed a high-fat diet HFD (CLEA Japan, Inc.) for two months to prepare high-fat diet-induced obesity model mice. Then, HPH-15 (10 mg/kg or 100 mg/kg, […]) dissolved in olive oil (Kenei Pharmaceutical Co., Ltd.) or metformin (300 mg/kg, […]) was orally administered once a day for 28 days. Olive oil alone was administered as a control. Body weight, random blood glucose levels, and fasting blood glucose levels were measured every 7 days using a blood glucose meter Glutest Aqua (Sanwa Kagaku Kenkyusho Co., Ltd.). Fasting blood glucose levels were measured after 12-hour fasting. Note that, during the drug administration period, the mice were fed the high-fat diet HFD. The results of random blood glucose levels (mg/dl) are shown in FIG. 7A, and the results of fasting blood glucose levels (mg/dl) are shown in FIG. 7B.
# [3] = tested on: high-fat diet-induced obesity model mice; experiment: Organ weight in mouse; format: in vivo; conditions: HPH-15 100 mg/kg orally once a day 28 days; compared to olive oil
# Description: The changes in organ weights when HPH-15 was administered were examined.
# High-fat diet-induced obesity model mice were prepared in the same manner as in Example 7. Then, HPH-15 (10 mg/kg or 100 mg/kg, […]) dissolved in olive oil or metformin (300 mg/kg, […]) was orally administered once a day for 28 days. Olive oil alone was administered as a control. After 28 days of administration of each, the liver, muscle, subcutaneous fat, and epididymis of the high-fat diet-induced obesity model mice were excised and weighed.
# [4] = tested on: adenosine monophosphate-activated protein kinase (AMPK); experiment: Activation of AMPK (p-AMPK/AMPK, Western blotting) in liver cell model HepG2; format: cell-based, human; conditions: HPH-15 at 1/40th the concentration of metformin (2 mM), 24 hours
# Description: The tissues involved in glucose uptake and glucose metabolism are mainly the muscle, the liver, and the fat. Thus, using a cell model of each tissue, the relationship between HPH-15 and activation of adenosine monophosphate-activated protein kinase (AMPK) was examined. Note that AMPK is known as a therapeutic target for diabetes. AMPK acts as an energy sensor, and when it detects a decrease in ATP serving as an intracellular energy source, it suppresses the synthesis of glucose, fats, and proteins and produces ATP. Exercise therapy for diabetes is based on this mechanism. Further, AMPK has been drawing attention as a factor that improves insulin resistance.
# As a muscle cell model to be used, rat myoblast cell line L6-GLUT4myc (myoblasts expressing myc-tagged GLUT4) was cultured in a minimal essential medium a-MEM (10% FBS) and differentiated into myotubes. Differentiation into myotubes was performed by culturing L6-GLUT4 cells in a-MEM (10% FBS) and then changing the medium to a-MEM (2% FBS), followed by culturing for 6 days. Human HepG2 cell line was used as a liver cell model. As an adipocyte model to be used, mouse 3T3-L1 preadipocyte cell line was differentiated into adipocytes. Differentiation into adipocytes was performed as follows. […]
# Next, bands of AMPK and p-AMPK were quantified using ImageJ to determine a ratio of activated AMPK relative to AMPK (p-AMPK/AMPK).
# [5] = tested on: adipocyte model 3T3-L1; experiment: Cytotoxicity (MTT reagent); format: cell-based, mouse; conditions: HPH-15 1 μM, 10 μM or 50 μM, 24 hours
# Description: as §1, §2
# [6] = tested on: Smad 3; conditions: Non-Patent Literature 3; cited from earlier work
compound,measurement,setting,value
CC(C)(C)SCCNC(=S)c1cccc(C(=S)NCCSC(C)(C)C)n1 [HPH-15],cytotoxicity (number of viable cells),[1],no cytotoxicity was confirmed
same,fasting blood glucose levels,[2]; 12-hour fasting,had the effect of lowering
same,random blood glucose levels,[2],had the effect of lowering
same,reduction of subcutaneous fat weight,[3],approximately 50%
same,AMPK activation (p-AMPK/AMPK) compared to when metformin was used,[4],approximately 40%
same,cytotoxicity (number of viable cells),[5],no cytotoxicity was confirmed
same,phosphorylation of Smad 3 induced by TGF-β,[6],reduces the phosphorylation of Smad 3 induced by TGF-β
